pIC50: −log10 of the molar value. The source made the active and inactive calls. The rule behind the calls is not given here.
Key:
P2X purinoceptor 7 [1] = target: T1, P2X purinoceptor 7 (Homo sapiens, UniProt Q99572); assay: Antagonist activity at human P2X7 receptor assessed as reduction in calcium flux by FLIPR assay
T1 sequence (Q99572 whole entry): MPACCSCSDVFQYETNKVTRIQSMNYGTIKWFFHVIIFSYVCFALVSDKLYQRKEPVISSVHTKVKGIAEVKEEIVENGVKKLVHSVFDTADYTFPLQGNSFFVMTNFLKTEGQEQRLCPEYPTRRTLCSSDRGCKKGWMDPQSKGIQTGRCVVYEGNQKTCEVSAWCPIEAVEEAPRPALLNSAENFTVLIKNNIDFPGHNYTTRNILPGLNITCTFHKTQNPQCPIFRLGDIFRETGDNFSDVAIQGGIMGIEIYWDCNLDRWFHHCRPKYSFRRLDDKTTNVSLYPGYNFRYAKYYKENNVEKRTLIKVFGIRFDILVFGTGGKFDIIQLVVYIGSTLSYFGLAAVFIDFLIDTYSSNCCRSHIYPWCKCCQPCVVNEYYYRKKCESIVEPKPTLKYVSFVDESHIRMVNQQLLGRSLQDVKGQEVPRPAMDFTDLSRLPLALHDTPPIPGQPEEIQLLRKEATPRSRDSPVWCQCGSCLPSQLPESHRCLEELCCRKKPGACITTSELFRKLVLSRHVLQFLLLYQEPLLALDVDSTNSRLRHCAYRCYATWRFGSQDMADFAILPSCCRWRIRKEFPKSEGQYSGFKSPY

P2X purinoceptor 7 [2] = target: T2, P2X purinoceptor 7 (Mus musculus, UniProt Q9Z1M0); assay: Antagonist activity at P2X7 receptor in C57/bl6 mouse whole blood assessed as reduction in LPS/BzATP-induced IL-1beta release preincubated with LPS-stimulated cells for 30 mins followed by BzATP addition measured after 1.5 hrs by ELISA; format: tissue-based
T2 sequence (Q9Z1M0 whole entry): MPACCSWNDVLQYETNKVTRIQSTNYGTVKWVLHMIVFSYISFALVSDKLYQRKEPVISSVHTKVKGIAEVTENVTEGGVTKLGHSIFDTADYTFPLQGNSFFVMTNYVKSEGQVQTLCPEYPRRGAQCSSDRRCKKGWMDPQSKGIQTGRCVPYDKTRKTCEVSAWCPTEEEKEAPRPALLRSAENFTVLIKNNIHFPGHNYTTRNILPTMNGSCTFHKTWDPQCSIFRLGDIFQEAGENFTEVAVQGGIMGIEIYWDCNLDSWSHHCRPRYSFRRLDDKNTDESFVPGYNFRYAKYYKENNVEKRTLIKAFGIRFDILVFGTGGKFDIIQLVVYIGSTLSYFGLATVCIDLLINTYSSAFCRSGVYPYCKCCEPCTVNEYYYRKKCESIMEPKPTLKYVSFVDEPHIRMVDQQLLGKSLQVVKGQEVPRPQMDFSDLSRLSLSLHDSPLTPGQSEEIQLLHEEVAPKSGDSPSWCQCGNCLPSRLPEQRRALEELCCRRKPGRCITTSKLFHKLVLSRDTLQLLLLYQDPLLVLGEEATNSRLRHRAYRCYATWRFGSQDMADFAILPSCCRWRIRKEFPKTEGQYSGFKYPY

P2X purinoceptor 7 [3] = target: T2, P2X purinoceptor 7; assay: Antagonist activity at mouse P2X7 receptor assessed as reduction in calcium flux by FLIPR calcium flux assay
P2X purinoceptor 7 [4] = target: T1, P2X purinoceptor 7; assay: Antagonist activity at P2X7 receptor in human whole blood assessed as reduction in LPS/BzATP-induced IL-1beta release preincubated with LPS-stimulated cells for 30 mins followed by BzATP addition measured after 1.5 hrs by ELISA; format: tissue-based
Mus musculus [5] = assay: Antiarthritic activity in DBA mouse assessed as decrease in collagen/CFA-induced arthritic score at 0.3 mg/kg, po qd administered on day 21 to 34 post collagen/CFA challenge measured on day 35; format: functional, organism-based
Mus musculus [6] = assay: Antiarthritic activity in DBA mouse assessed as decrease in collagen/CFA-induced arthritic score at 30 mg/kg, ip twice per week administered on day 21 post collagen/CFA challenge; format: functional, organism-based
[7] = Plasma concentration in mouse at 50 mg/kg, po measured at 4 hrs; format: ADME, organism-based
[8] = Drug uptake in mouse brain at 50 mg/kg, po measured at 4 hrs; format: ADME, organism-based; conditions: read-out: Drug uptake
Mus musculus [9] = assay: Ex vivo inhibition of P2X7 receptor in C57/bl6 mouse assessed as plasma concentration required to reduce LPS/BzATP-induced IL-1beta release at 5 mg/kg, po measured 2 hrs post dose; format: functional, organism-based
Mus musculus [10] = assay: Ex vivo inhibition of P2X7 receptor in po dosed C57/bl6 mouse assessed as reduction in LPS/BzATP-induced IL-1beta release in blood measured 2 hrs post dose; format: functional, organism-based
Mus musculus [11] = assay: Ex vivo inhibition of P2X7 receptor in C57/bl6 mouse assessed as plasma concentration required to reduce LPS/BzATP-induced IL-1beta release at 50 mg/kg, po measured 8 hrs post dose; format: functional, organism-based
Mus musculus [12] = assay: Ex vivo inhibition of P2X7 receptor in C57/bl6 mouse assessed as plasma concentration required to reduce LPS/BzATP-induced IL-1beta release at 50 mg/kg, po measured 2 hrs post dose; format: functional, organism-based
[13] = Drug uptake in C57/bl6 mouse plasma at 50 mg/kg, po after 24 hrs; format: ADME, organism-based; conditions: in vivo, BLD = below limit of detection
Mus musculus [14] = assay: Ex vivo inhibition of P2X7 receptor in C57/bl6 mouse assessed as plasma concentration required to reduce LPS/BzATP-induced IL-1beta release at 50 mg/kg, po measured 4 hrs post dose; format: functional, organism-based
Mus musculus [15] = assay: Ex vivo inhibition of P2X7 receptor in C57/bl6 mouse assessed as plasma concentration required to reduce LPS/BzATP-induced IL-1beta release at 15 mg/kg, po measured 2 hrs post dose; format: functional, organism-based

SMILES: O=C(NCC(c1cnc(C(F)(F)F)nc1)N1CCC(F)(F)CC1)c1c(Cl)ccc2nc(N3CCC(O)CC3)ccc12 (configuration not stated)
- pIC50 (P2X purinoceptor 7 [1]): 6.92

SMILES: O=C(NCC(c1cnc(C(F)(F)F)nc1)N1CCC(F)(F)CC1)c1c(Cl)ccc2nc(NC3CC3)ccc12 (configuration not stated)
- pIC50 (P2X purinoceptor 7 [2]): 6.20
- pIC50 (P2X purinoceptor 7 [3]): 6.91
- pIC50 (P2X purinoceptor 7 [1]): 7.19
- pIC50 (P2X purinoceptor 7 [4]): 6.85

SMILES: O=C(NCC(c1cnc(C(F)(F)F)nc1)N1CCC(F)(F)CC1)c1c(Cl)ccc2nc(NCCO)ccc12 (configuration not stated)
- pIC50 (P2X purinoceptor 7 [1]): 7.11

SMILES: CNc1ccc2c(C(=O)NCC(c3cnc(C(F)(F)F)nc3)N3CCC(F)(F)CC3)c(Cl)ccc2n1 (configuration not stated)
- pIC50 (P2X purinoceptor 7 [3]): 6.52
- pIC50 (P2X purinoceptor 7 [1]): 7.09

SMILES: CN1CCN(c2ccc3c(C(=O)NCC(c4cnc(C(F)(F)F)nc4)N4CCC(F)(F)CC4)c(Cl)ccc3n2)CC1 (configuration not stated)
- pIC50 (P2X purinoceptor 7 [3]): 6.31
- pIC50 (P2X purinoceptor 7 [1]): 7.07

SMILES: O=C(NCC(c1cnc(C(F)(F)F)nc1)N1CCC(F)(F)CC1)c1c(Cl)ccc2nc(N3CC[C@H](O)C3)ccc12 (some centres not stated)
- pIC50 (P2X purinoceptor 7 [1]): 6.82

SMILES: Nc1ccc2c(C(=O)NCC(c3cnc(C(F)(F)F)nc3)N3CCC(F)(F)CC3)c(Cl)ccc2n1 (configuration not stated)
- pIC50 (P2X purinoceptor 7 [3]): 5.96
- pIC50 (P2X purinoceptor 7 [1]): 8.05

SMILES: C[C@@H]1C[C@H]2[C@@H]3CCC4=CC(=O)C=C[C@]4(C)[C@@]3(F)[C@@H](O)C[C@]2(C)[C@@]1(O)C(=O)CO
- Activity (Mus musculus [5]): Active

SMILES: CN(Cc1cnc2nc(N)nc(N)c2n1)c1ccc(C(=O)N[C@@H](CCC(=O)O)C(=O)O)cc1
- Activity (Mus musculus [6]): Active

SMILES: O=C(NCC(c1cnc(C(F)(F)F)nc1)N1CCC(F)(F)CC1)c1c(Cl)ccc2nc(N3CC[C@@H](O)C3)ccc12 (some centres not stated)
- concentration at 4 h [7]: 6420 ng/mL
- pIC50 (P2X purinoceptor 7 [2]): 6.50
- concentration at 4 h [8]: 21 ng/mL
- Cp (Mus musculus [9]): 1.6 µM
- inhibition (Mus musculus [10]): Dose-dependent effect
- Cp (Mus musculus [11]): 4 µM
- Cp (Mus musculus [12]): 23.4 µM
- pIC50 (P2X purinoceptor 7 [3]): 7.10
- pIC50 (P2X purinoceptor 7 [1]): 7.46
- pIC50 (P2X purinoceptor 7 [4]): 7.06
- Cp [13]: Bld
- Cp (Mus musculus [14]): 11.7 µM
- Cp (Mus musculus [15]): 8.9 µM

SMILES: O=C(NCC(c1cnc(C(F)(F)F)nc1)N1CCC(F)(F)CC1)c1c(Cl)ccc2nc(N3CCOCC3)ccc12 (configuration not stated)
- pIC50 (P2X purinoceptor 7 [2]): 6.20
- pIC50 (P2X purinoceptor 7 [3]): 6.99
- pIC50 (P2X purinoceptor 7 [1]): 7.60
- pIC50 (P2X purinoceptor 7 [4]): 6.42

— ChEMBL document CHEMBL3856256, “The discovery and preclinical characterization of 6-chloro-N-(2-(4,4-difluoropiperidin-1-yl)-2-(2-(trifluoromethyl)pyrimidin-5-yl)ethyl)quinoline-5-carboxamide based P2X7 antagonists” (Bioorg Med Chem Lett, 2016)
